Paper PMC12040169 (PLOS Biology, 2025)
≈ marks a conversion by molar mass, not a printed value.

How the values were obtained:
[1] = in vitro; design: Viability of infected HeLa host cells, resazurin conversion, bulk resorufin fluorescence relative to DMSO; settings: human, hela cells; bulk resorufin, mean of 3
[2] = test system: T1, CTL2-GFP (C. trachomatis L2/434/Bu, GFP-expressing); assay: microbe, parasite or virus in culture; design: C. trachomatis growth in HeLa, dose-response, mean of bulk GFP fluorescence and imaged total inclusion area; settings: Chlamydia trachomatis, HeLa, 28.5 h; mean of GFP and inclusion area
T1 construct: L2/434/Bu, GFP-expressing
How it was run: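 A 36,785-compound library was screened using bulk GFP and resorufin fluorescence, followed by Hoechst staining and high-content imaging of inclusions (GFP) and host nuclei. Inclusion area and number served as growth proxies and nuclei counts as a viability proxy. MICs were calculated from these readouts.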

[3] = test system: T1, CTL2-GFP (C. trachomatis L2/434/Bu, GFP-expressing); assay: microbe, parasite or virus in culture; design: species or system HeLa; C. trachomatis growth in HeLa, dose-response, mean of bulk GFP fluorescence and imaged total inclusion area; settings: Chlamydia trachomatis, 28.5 h; mean of GFP and inclusion area
Excerpt: We screened a library of 36,785 small molecules displaying drug-like properties and covering a wide chemical space (Fig 1A and S2A Data). In this process, we also complemented the assay described above with an imaging-based readout (Fig 1B). After measurements of bulk GFP and resorufin fluorescence, cells were fixed, stained with the DNA dye Hoechst, and imaged at a high-content imaging platform to detect chlamydial inclusions (GFP) and host cell nuclei (Hoechst). The total area and number of inclusions in individual wells and the number of nuclei then served as additional proxies for chlamydial growth and host cell viability. […] MICs were calculated as described above.

Structure (SMILES) | viability at 28.5 h, 0.000416667 µM [1] | viability at 28.5 h, 0.00125 µM [1] | viability at 28.5 h, 0.00375 µM [1] | viability at 28.5 h, 0.0123333 µM [1] | viability at 28.5 h, 0.037 µM [1] | viability at 28.5 h, 0.111 µM [1] | viability at 28.5 h, 0.333 µM [1] | viability at 28.5 h, 1 µM [1] | viability at 28.5 h, 3 µM [1] | viability at 28.5 h, 10 µM [1] | viability at 28.5 h, 30 µM [1] | IC50 [2] | MIC [3]
COc1ccc(C2CC(=O)C=C(Nc3cc(Cl)ccc3O)C2)cc1 (centres unmarked) [c24e] | 94% | 92.4% | 94.1% | 84.9% | 89.8% | 84.5% | 88.6% | 85.7% | 87.6% | 83.7% | 88.4% | 2.46 µM | 5.71 µM (≈ 1.96 µg/mL)
COCC(=O)N[C@H]1C[C@H]2C(=O)Nc3ccc(/C=C/c4ccccc4)cc3C(=O)N2C1 [c25e] | 97.4% | 103% | 99.5% | 105% | 100% | 98.6% | 102% | 106% | 110% | 113% | 113% | 2.47 µM | 9.14 µM (≈ 3.71 µg/mL)
O=C(Nc1ccc(OC(F)(F)F)cc1)Nc1cc(-c2cccs2)n[nH]1 [c26e] | 104% | 100% | 99.3% | 100% | 96.1% | 106% | 106% | 108% | 105% | 103% | 96.4% | 2.5 µM | 3.98 µM (≈ 1.47 µg/mL)
CN(C)c1ccc(Nc2nc(NCCO)c3ccccc3n2)cc1 [c27e] | 93.3% | 89.2% | 89.8% | 89.3% | 93.2% | 89.1% | 95.3% | 89.9% | 103% | 99.4% | 110% | 2.54 µM | 5.04 µM (≈ 1.63 µg/mL)
O=C(Nc1ccccc1N1CCCNCC1)c1ccc2ccccc2c1 [c29e] | 108% | 107% | 108% | 107% | 109% | 116% | 114% | 115% | 111% | 116% | 112% | 2.87 µM | 5.56 µM (≈ 1.92 µg/mL)
CCC1C(c2ccc(C)cc2)=CCC(C(=O)NCCCN(C)C)C1C (centres unmarked) [c30e] | 91.8% | 95.1% | 91.6% | 87.1% | 90.5% | 97.1% | 87.9% | 92.4% | 89.5% | 94.4% | 55.5% | 3.07 µM | 8.94 µM (≈ 3.06 µg/mL)
Fc1cc(Br)c(CNCc2ncc[nH]2)c(N2CCCCC2)c1F [c31e] | 101% | 103% | 98.4% | 96.4% | 92% | 100% | 93.6% | 97.6% | 101% | 97.6% | 102% | 3.12 µM | 5.18 µM (≈ 1.99 µg/mL)
COc1ccc2cc3c(nc2c1)OC(=O)N(CC1CC1)C3 [c32e] | 102% | 94.1% | 91.5% | 92% | 89.7% | 84.5% | 88.5% | 84.9% | 86.8% | 85.1% | 85.4% | 3.16 µM | 4.53 µM (≈ 1.29 µg/mL)
CC(=O)Nc1ccc(-c2cccc(COC3CCN(C(=O)c4ccc(OC(C)C)cc4)CC3)c2)cc1 [c36e] | 89.8% | 85.4% | 90.5% | 89% | 91.7% | 89.4% | 94.8% | 92% | 95.1% | 97.8% | 116% | 4.11 µM | 8.26 µM (≈ 4.02 µg/mL)
CCOc1ccc2nc(NC(=N)N)nc(C)c2c1 [c37e] | 85.5% | 89.1% | 85.5% | 89% | 86.7% | 91.1% | 88.4% | 87.7% | 84.7% | 79% | 55.2% | 4.22 µM | 11.4 µM (≈ 2.8 µg/mL)
Cc1cccc(-c2ccc(CC3(C(N)=O)CCN(C(=O)CCc4ccccc4)CC3)cc2)c1 [c38e] | 101% | 97.3% | 96.8% | 101% | 98.4% | 98.7% | 94.7% | 103% | 99.3% | 104% | 114% | 4.84 µM | 8.43 µM (≈ 3.71 µg/mL)
COc1ccc([C@@H]2CN(C)C[C@H]2NC(=O)Nc2ccc(Cl)c(Cl)c2)cc1OC [c39e] | 93.1% | 88.4% | 92.6% | 90.6% | 94.9% | 83.9% | 87.9% | 84.4% | 86.1% | 84.6% | 81.3% | 4.96 µM | 5.39 µM (≈ 2.29 µg/mL)
O=C1C(NCCO)=C(Nc2cccc(Cl)c2)C(=O)c2ccccc21 [c45e] | 89.2% | 87.4% | 91% | 91.6% | 91.8% | 88.5% | 92.8% | 89.8% | 93.6% | 97.9% | 102% | 6.16 µM | 19.4 µM (≈ 6.66 µg/mL)
Cc1cccc(OCC(C)NC(=O)NCCc2cnn(C)c2)c1 (centres unmarked) [c47e] | 97.2% | 99.7% | 102% | 104% | 105% | 100% | 112% | 106% | 109% | 113% | 118% | 6.59 µM | 12.1 µM (≈ 3.83 µg/mL)
Oc1ccccc1Nc1nc(NC2CCCC2)c2ccccc2n1 [c49e] | 84.4% | 94.9% | 87.6% | 90% | 86% | 91.7% | 87.8% | 90.1% | 84.7% | 90.6% | 77.3% | 7.48 µM | 10.8 µM (≈ 3.45 µg/mL)
O=C(NCCCn1ccnc1)c1cc(-c2cccc(Br)c2)nc2ccccc12 [c50e] | 90.5% | 90.8% | 90.1% | 87.8% | 86.1% | 90.6% | 85.4% | 89.1% | 86.3% | 90% | 84.8% | 7.95 µM | 9.27 µM (≈ 4.03 µg/mL)
C1=C(CCNCCc2ccccc2)c2ccccc2C12CCCC2 [c51e] | 99.8% | 96.2% | 101% | 98.1% | 101% | 97.8% | 99.6% | 102% | 100% | 106% | 96.5% | 8.3 µM | 9.36 µM (≈ 2.97 µg/mL)
